Measured values published in patent US8247556B2, “Method for preparing 6-substituted-7-aza-indoles” (Amgen Inc., priority 2005, dated 2012).

How the values were obtained:
[1] = target: T1, CYP 3A4 (Homo sapiens, UniProt P08684); assay: Human Liver Microsome CYP 3A4 Inhibition; assay type: in vitro ADME; details: human liver microsomes, midazolam substrate; read-out: inhibited CYP3A4 microsomes, IC50
T1 construct: followed by 222.2 ml of 20 mg/mL HLM (BD Gentest); tissue BD Gentest; host or cells: human liver microsomes
Procedure: Determining the IC-50 for Human Liver Microsome CYP 3A4 Inhibition
Postassium Phosphate Buffer pH 7.4 (39.667 mL) is chilled in an ice bath and added to a 50 ml plastic tube. A 2 mM midazolam solution is prepared. 111.1 ul of 2 mM midazolam is added to the buffer followed by 222.2 ml of 20 mg/mL HLM (BD Gentest). The incubation mixture was gently inverted and equilibrated at 37° C. for 5 min. A stock inhibitor solution is prepared, such as in DMSO. Incubation mixture (801 ul) is added into 96-well, 1.2 mL plastic tubes. Inhibitor is added at various concentrations (e.g. 30 uM to 120 nM). The tubes are sealed and mix by inverting 5 times gently. The incubation mixture containing inhibitor (270 uL) is added by aliquot into wells of a 1 mL, 96-well block (duplicate). The block is placed into a 37° C. water bath and equilibrated for 3 min. 10 mM NADPH (30 ml) is added to all samples. After 5 minutes, the reactions are stopped by adding 300 ml of Quench Solution [0.1% TFA in CH3CN]. 1′-OH-Midazolam-d313C (2 mg/mL 30 uL) is added, the block is gently vortexed then centrifuged at 3000 rpm for 10 minutes at 4° C. 50 μL of supernatant from all samples is added by aliquot into a shorter, 96-well block. The aliquoted supernatants are pooled with other assay(s) and HPLC Grade Water (50 ul) is added to all samples. After covering and shaking by vortex gently for 2 minutes, the solutions were analyzed by LC-MS (API 3000,5% MeOH w/0.1% AcOH to 95% MeOH w/0.1% AcOH). 37 nM ketoconazole is used as a control.

[2] = system: VEGF-stimulated HUVEC proliferation (Human Umbilical Vein Endothelial cells); assay: HUVEC Proliferation Assay; assay type: cell-based; details: VEGF 50 ng/mL, 72 h, CyQuant fluorescent dye, read-out: inhibited VEGF-stimulated HUVEC proliferation at a level
Method in brief: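 HUVEC (passage 2–3) were seeded in DMEM+10% FBS for 22 h, then pre-incubated 2–3 h with 5-point, 5-fold compound dilutions (0.25% DMSO). They were then stimulated with VEGF (50 ng/mL final) for 72 h at 37 °C. Proliferation was read by CyQuant fluorescence (485/530 nm) after freeze-thaw, and IC50 came from a 4-parameter fit.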

[3] = target: T2, CYP 2D6 (Homo sapiens, UniProt P10635); assay: Human Liver Microsome CYP 2D6 Inhibition; assay type: in vitro ADME; details: human liver microsomes, bufuralol substrate; read-out: inhibited CYP2D6 microsomes, IC50
T2 construct: followed by 555.6 ml of 20 mg/mL HLM (BD Gentest); tissue BD Gentest; host or cells: human liver microsomes
Procedure: Determining the IC-50 for Human Liver Microsome CYP 2D6 Inhibition
Postassium Phosphate Buffer pH 7.4 (39.333 mL) is chilled in an ice bath and added to a 50 ml plastic tube. A 3.2 mM bufuralol solution is prepared. 111.1 ul of 3.2 mM bufuralol is added to the buffer followed by 555.6 ml of 20 mg/mL HLM (BD Gentest). The incubation mixture was gently inverted and equilibrated at 37° C. for 5 min. A stock inhibitor solution is prepared, such as in DMSO. Incubation mixture (801 ul) is added into 96-well, 1.2 mL plastic tubes. Inhibitor is added at various concentrations (e.g. 30 μM to […]). The tubes are sealed and mix by inverting 5 times gently. The incubation mixture containing inhibitor (270 μL) is added by aliquot into wells of a 1 mL, 96-well block (duplicate). The block is placed into a 37° C. water bath and equilibrated for 3 minutes. 10 mM NADPH (30 ml) is added to all samples. After 5 min, the reactions are stopped by adding 300 ml of Quench Solution [0.1% TFA in CH3CN]. 1′-OH-bufuralol-d9 (750 ng/mL 30 μL) is added, the block is gently vortexed then centrifuged at 3000 rpm for 10 min at 4° C. 50 μL of supernatant from all samples is added by aliquot into a shorter, 96-well block. The aliquoted supernatants are pooled with other assay(s) and HPLC Grade Water (50 μL) is added to all samples. After covering and shaking by vortex gently for 2 minutes, the solutions were analyzed by LC-MS (API 3000, 5% MeOH w/0.1% AcOH to 95% MeOH w/0.1% AcOH). 500 nM quinidine is used as a control.

T1 sequence (P08684 whole entry): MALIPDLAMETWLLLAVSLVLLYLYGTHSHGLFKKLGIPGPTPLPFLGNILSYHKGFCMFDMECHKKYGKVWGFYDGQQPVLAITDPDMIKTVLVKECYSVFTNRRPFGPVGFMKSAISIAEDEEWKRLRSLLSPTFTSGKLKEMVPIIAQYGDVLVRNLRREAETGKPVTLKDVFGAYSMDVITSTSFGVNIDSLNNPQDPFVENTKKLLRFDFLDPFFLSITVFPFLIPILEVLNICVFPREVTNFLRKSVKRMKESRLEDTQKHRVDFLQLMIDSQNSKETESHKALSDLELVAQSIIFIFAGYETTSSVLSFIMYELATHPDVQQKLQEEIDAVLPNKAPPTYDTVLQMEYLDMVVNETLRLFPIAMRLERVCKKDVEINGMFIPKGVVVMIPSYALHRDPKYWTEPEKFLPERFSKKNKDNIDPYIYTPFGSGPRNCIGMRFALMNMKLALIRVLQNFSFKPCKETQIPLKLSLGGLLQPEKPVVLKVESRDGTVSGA
T2 sequence (P10635 whole entry): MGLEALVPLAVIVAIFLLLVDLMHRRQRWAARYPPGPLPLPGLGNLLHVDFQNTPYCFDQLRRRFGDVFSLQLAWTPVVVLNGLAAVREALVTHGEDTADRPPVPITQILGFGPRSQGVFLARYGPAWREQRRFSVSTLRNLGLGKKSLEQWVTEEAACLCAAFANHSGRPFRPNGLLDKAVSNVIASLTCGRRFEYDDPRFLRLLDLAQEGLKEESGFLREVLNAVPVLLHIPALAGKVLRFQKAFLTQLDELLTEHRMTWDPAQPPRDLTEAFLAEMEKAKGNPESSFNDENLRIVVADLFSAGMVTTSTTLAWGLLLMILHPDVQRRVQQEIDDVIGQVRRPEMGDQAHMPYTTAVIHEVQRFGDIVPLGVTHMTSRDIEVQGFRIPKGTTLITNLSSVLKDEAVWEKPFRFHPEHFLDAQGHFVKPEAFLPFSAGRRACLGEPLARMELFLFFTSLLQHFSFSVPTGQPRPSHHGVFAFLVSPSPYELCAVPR

Row | IC50 [1] | IC50 [3] | SMILES | IC50 [2]
1 | > 20 µM | > 20 µM | O=C(Nc1ccc(OC(F)(F)F)cc1)c1cc(F)cnc1NCc1ccnc2[nH]ccc12 [Example 96, 5-fluoro-2-((1H-pyrrolo[2,3-b]pyridin-4-ylmethyl)amino)-N-(4-((trifluoromethyl)oxy)phenyl)-3-pyridinecarboxamide] | < 0.5 µM
2 | > 20 µM | > 20 µM | CC1(C)CC(=O)Nc2cc(NC(=O)c3cccnc3NCc3c[nH]c4ncccc34)ccc21 [Example 41, N-(4,4-Dimethyl-2-oxo-1,2,3,4-tetrahydro-7-quinolinyl)-2-((1H-pyrrolo[2,3-b]pyridin-3-ylmethyl)amino)-3-pyridinecarboxamide] | < 0.5 µM
3 | > 20 µM | > 20 µM | CC1(C)CNc2cc(NC(=O)c3cc(F)cnc3NCc3ccnc4[nH]ccc34)ccc21 [Example 130, N-(3,3-Dimethyl-2,3-dihydro-1H-indol-6-yl)-5-fluoro-2-((1H-pyrrolo[2,3-b]pyridin-4-ylmethyl)amino)-3-pyridinecarboxamide] | < 0.5 µM
4 | > 20 µM | > 20 µM | O=C(Nc1ccc(C(F)(F)F)cc1)c1cccnc1NCc1ccnc2[nH]ccc12 [Example 66, 2-[(1H-Pyrrolo[2,3-b]pyridin-4-ylmethyl)-amino]-N-(4-trifluoromethyl-phenyl)-nicotinamide] | < 0.5 µM
5 | 2.7 µM | 8.7 µM | CC(C)(C)c1ccc(NC(=O)c2cccnc2NCc2ccncc2)cc1 [N-(4-tert-Butylphenyl)-2-((4-pyridinylmethyl)amino)-3-pyridinecarboxamide, reference compound] | 
6 | > 20 µM | > 20 µM | O=C(Nc1ccc(C(F)(F)C(F)(F)F)cc1)c1cccnc1NCc1ccnc2[nH]ccc12 [Example 67, N-(4-pentafluoroethyl-phenyl)-2-[(1H-pyrrolo[2,3-b]pyridin-4-ylmethyl)-amino]-nicotinamide] | < 0.5 µM
7 | > 20 µM | > 20 µM | O=C(Nc1ccc(C(F)(F)F)cc1)c1cc(F)cnc1NCc1ccnc2[nH]ncc12 [Example 118, 5-Fluoro-2-((1H-pyrazolo[3,4-b]pyridin-4-ylmethyl)amino)-N-(4-(trifluoromethyl)phenyl)-3-pyridinecarboxamide] | < 0.5 µM
8 | > 20 µM | > 20 µM | CC1(C)CC(=O)Nc2cc(NC(=O)c3cccnc3NCc3ccnc4c3CCN4)ccc21 [Example 30, 2-[(2,3-Dihydro-1H-pyrrolo[2,3-b]pyridin-4-ylmethyl)amino]-N-(4,4-dimethyl-2-oxo-1,2,3,4-tetrahydroquinolin-7-yl)nicotinamide] | 
9 | > 20 µM | > 20 µM | Cc1nc2cc(NC(=O)c3cccnc3NCc3ccnc4c3CC(=O)N4)ccc2s1 [Example 74, N-(2-methyl-1,3-benzothiazol-5-yl)-2-(((2-oxo-2,3-dihydro-1H-pyrrolo[2,3-b]pyridin-4-yl)methyl)amino)-3-pyridinecarboxamide] | 
10 | > 20 µM | > 20 µM | CC(C)(C)c1ccc(NC(=O)c2cc(F)cnc2NCc2ccnc3[nH]ccc23)cc1 [Example 79, N-(4-(1,1-dimethylethyl)phenyl)-5-fluoro-2-((1H-pyrrolo[2,3-b]pyridin-4-ylmethyl)amino)-3-pyridinecarboxamide] | 
11 | > 20 µM |  | O=C(Nc1ccc(C(F)(F)F)c(Cl)c1)c1cc(F)cnc1NCc1ccnc2[nH]ncc12 [Example 127, N-(3-Chloro-4-(trifluoromethyl)phenyl)-5-fluoro-2-((1H-pyrazolo[3,4-b]pyridin-4-ylmethyl)amino)-3-pyridinecarboxamide] | < 0.5 µM
12 | > 20 µM |  | O=C(Nc1cccc(C(O)(C(F)(F)F)C(F)(F)F)c1)c1cccnc1NCc1ccnc2[nH]ccc12 [Example 18, 2-[(1H-Pyrrolo[2,3-b]pyridin-4-ylmethyl)amino]-N-{3-[2,2,2-trifluoro-1-hydroxy-1-(trifluoromethyl)ethyl]phenyl}nicotinamide] | < 0.5 µM
